The experiment has as its target T1, β–glucosidase.
T1 construct: gene emulsin; sweet almond is only the usual commercial preparation
The experiment in a line: p-nitrophenol release, […] nm. The conditions noted are these: p-nitrophenyl β-D-glucopyranoside […], phosphate buffer pH […] °C. It is filed as biochemical.

Structures are written as SMILES. Values after ≈ are worked out from the molar mass of the structure shown.

On to `O=C1O[C@H](CO)[C@@H](O)[C@H](O)[C@H]1O` [D-Glucono-δ-lactone], for which the “IC50 Values (μg/mL) / β-Glc” value was 10.68 ± 0.005 µg/mL (≈ 60 µM).
